In patent US11453683B1, “KRas G12D inhibitors” (Mirati Therapeutics, Inc., priority 2019, dated 2022):

Legend:
[1] = biological target: T1, KRas G12D (Homo sapiens (Human), UniProt P01116, G12D); experiment: KRas G12D Surface Plasmon Resonance (SPR) Binding Assay; conditions: Biacore T200, immobilized biotinylated KRAS protein, 1:1 binding model
Protocol: Briefly, 1 L of 1.05× HBS-Mg buffer (262.5 mM Bioultra Hepes, pH 7.5, 157.5 mM NaCl, 105 mM MgCl2, 0.525 mM TCEP, 0.0305% Brij-35) was prepared and filter sterilized using a 0.22 μm bottle top filter. Approximately 50 mL of 1.05× HBS-Mg buffer was removed and saved for future dilutions. A 50 mL aliquot of DMSO (Sigma Aldrich DMSO Lot. #SHBK2079) was added and continued to stir for 10 minutes, creating the final 1.0× HBS-Mg buffer (250 mM Bioultra Hepes pH 7.5, 150 mM NaCl, 100 mM MgCl2, 0.5mM TCEP, 0.03% Brij-35).
Biacore T200 instrument was primed using 1.0× HBS-Mg buffer before docking a GE Streptavidin (SA) chip and then primed two additional times prior to beginning the immobilization step. All immobilized protein mixtures were created using 3-5mg/mL Biotinylated Avidin-tagged KRAS protein using the following immobilization settings: SA chip type, 1 flow cells per cycle, 720 second contact time, and 5 ul/min flow rate. Normalization of the detector was also performed during the immobilization step using the GE Biallormalize solution.
All compounds were diluted to 10 mM in 100% DMSO prior to being diluted 20× in 1.05× buffer. […] Data evaluation was performed using the Biacore T200 Evaluation software and data fit to 1:1 binding model.
Target sequence in this assay (P01116-2 other isoform, or with tags, fused parts or gaps G12D): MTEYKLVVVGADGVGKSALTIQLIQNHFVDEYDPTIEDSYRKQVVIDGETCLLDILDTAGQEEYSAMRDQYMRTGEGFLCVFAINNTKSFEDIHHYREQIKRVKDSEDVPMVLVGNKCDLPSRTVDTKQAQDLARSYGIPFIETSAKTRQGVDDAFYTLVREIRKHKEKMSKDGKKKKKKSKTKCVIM

[2] = biological target: T1, KRas G12D; experiment: KRas G12D Binding Assay (TR-FRET displacement); conditions: TR-FRET displacement of Cy5 labelled tracer, GDP-loaded KRAS G12D, 60 minute incubation at 22° C.
Protocol: After a 60 minute incubation at 22° C., the reaction was measured using a PerkinElmer EnVision multimode plate reader via TR-FRET dual wavelength detection, and the percent of control (POC) calculated using a ratiometric emission factor. […] The POC values were fit to a 4-parameter logistic curve and the IC50 value was determined as the concentration where the curve crosses 50 POC.
Target sequence in this assay (P01116 other isoform, or with tags, fused parts or gaps G12D): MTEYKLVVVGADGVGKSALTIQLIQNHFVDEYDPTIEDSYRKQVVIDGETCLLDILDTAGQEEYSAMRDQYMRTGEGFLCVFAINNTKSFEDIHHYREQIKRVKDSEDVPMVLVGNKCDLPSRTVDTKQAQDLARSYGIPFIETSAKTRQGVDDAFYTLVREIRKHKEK

[3] = test system: KRas G12D-mediated phosphorylation of ERK; experiment: Inhibition of KRas G12D-mediated phosphorylation of ERK in AGS cells; type: cell-based; conditions: Homo sapiens; AGS cells expressing G12D, 3 hours, phospho-ERK normalized to GAPDH
Method in brief: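 Fixed, methanol-permeabilized; phospho-ERK (Thr202/Tyr204) by in-cell immunofluorescence normalized to GAPDH. Percent of DMSO control, IC50 by 4-parameter fit.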

| SMILES | Kd [1] [µM] | IC50 [2] [µM] | IC50 [3] [µM] |
| --- | --- | --- | --- |
| OCC(O)CCOc1nc(N2C[C@H]3CC[C@@H](C2)N3)c2cnc(-c3cccc4cccc(Cl)c34)c(F)c2n1 (stereo partly drawn) [Example 57, 4-((4-((1R,5S)-3,8-diazabicyclo[3.2.1]octan-3-yl)-7-(8-chloronaphthalen-1-yl)-8-fluoropyrido[4,3-d]pyrimidin-2-yl)oxy)butane-1,2-diol] | > 1000 | 7.29 |  |
| O[C@@H]1C[C@@H]2CN(c3nc(OCC45CCCN4CCC5)nc4c(F)c(-c5cccc6cccc(Cl)c56)ncc34)C[C@H]1N2 [Example 49, (1R,5R,6R)-3-(7-(8-chloronaphthalen-1-yl)-8-fluoro-2-((tetrahydro-1H-pyrrolizin-7a(5H)-yl)methoxy)pyrido[4,3-d]pyrimidin-4-yl)-3,8-diazabicyclo[3.2.1]octan-6-ol] | 0.0004 | 0.0059 | 2.12 |
| Oc1cc(-c2ncc3c(N4C[C@H]5CC[C@@H](C4)N5)nc(OCCCN4C[C@@H]5C[C@H]4CO5)nc3c2F)c2ccccc2c1 [Example 24, 4-(2-(3-((1S,4S)-2-oxa-5-azabicyclo[2.2.1]heptan-5-yl)propoxy)-4-((1R,5S)-3,8-diazabicyclo[3.2.1]octan-3-yl)-8-fluoropyrido[4,3-d]pyrimidin-7-yl)naphthalen-2-ol] | 0.005 | 0.0079 | 2.89 |
| C#Cc1c(F)ccc2cc(O)cc(-c3ncc4c(N5CC6CCC(C5)N6)nc(OC[C@]56CCCN5[C@@H](COC(=O)N(C)C)CC6)nc4c3F)c12 [Example 440, ((3R,7aR)-7a-(((4-((1R,5S)-3,8-diazabicyclo[3.2.1]octan-3-yl)-7-(8-ethynyl-7-fluoro-3-hydroxynaphthalen-1-yl)-8-fluoropyrido[4,3-d]pyrimidin-2-yl)oxy)methyl)hexahydro-1H-pyrrolizin-3-yl)methyl dimethyl carbamate] |  | 0.0008 | 0.0084 |
| [O-][N+]12CCCC1(COc1nc(N3CC4CCC(C3)N4)c3cnc(-c4cccc5cccc(Cl)c45)c(F)c3n1)CCC2 [Example 60, 7a-(((4-((1R,5S)-3,8-diazabicyclo[3.2.1]octan-3-yl)-7-(8-chloronaphthalen-1-yl)-8-fluoropyrido[4,3-d]pyrimidin-2-yl)oxy)methyl)hexahydropyrrolizine 4(1H)-oxide] | > 1000 | 1.66 | > 16.7 |
| CSc1cccc2cc(O)cc(-c3ncc4c(N5CC6CCC(C5)N6)nc(OCC56CCCN5C[C@H](F)C6)nc4c3F)c12 (mixture of isomers) [Example 372, 4-(4-((1R,5S)-3,8-diazabicyclo[3.2.1]octan-3-yl)-8-fluoro-2-((2-fluorotetrahydro-1H-pyrrolizin-7a(5H)-yl)methoxy)pyrido[4,3-d]pyrimidin-7-yl)-5-(methylthio)naphthalen-2-ol (racemic, trans)] |  | 0.0007 | 0.0105 |
| COC(=O)C12CCC(CN(c3nc(OC[C@@H]4CCCN4C)nc4c(F)c(-c5cc(O)cc6ccccc56)ncc34)C1)N2 (stereo partly drawn) [Example 158, methyl 3-(8-fluoro-7-(3-hydroxynaphthalen-1-yl)-2-(((S)-1-methylpyrrolidin-2-yl)methoxy)pyrido[4,3-d]pyrimidin-4-yl)-3,8-diazabicyclo[3.2.1]octane-1-carboxylate bis(2,2,2-trifluoroacetate)] | 0.33 | 0.0737 | 4.22 |
| Oc1cc(-c2ncc3c(N4C[C@H]5CC[C@@H](C4)N5)nc(OCCc4ccccc4F)nc3c2F)c2ccccc2c1 [Example 67, 4-(4-((1R,5S)-3,8-diazabicyclo[3.2.1]octan-3-yl)-8-fluoro-2-(2-fluorophenethoxy)pyrido[4,3-d]pyrimidin-7-yl)naphthalen-2-ol] | 1.15 | 1.25 |  |
| OCC(COc1nc(N2C[C@H]3CC[C@@H](C2)N3)c2cnc(-c3cccc4cccc(Cl)c34)c(F)c2n1)c1cccnc1 (stereo partly drawn) [Example 59, 3-((4-((1R,5S)-3,8-diazabicyclo[3.2.1]octan-3-yl)-7-(8-chloronaphthalen-1-yl)-8-fluoropyrido[4,3-d]pyrimidin-2-yl)oxy)-2-(pyridin-3-yl)propan-1-ol] | 1.12 | 0.946 |  |
| Oc1cc(-c2ncc3c(N4CC5CCC(C4)N5)nc(OC[C@@]45CCCN4C[C@H](F)C5)nc3c2F)c2c(F)cccc2c1 (racemic) [Example 366, 4-(4-((1R,5S)-3,8-diazabicyclo[3.2.1]octan-3-yl)-8-fluoro-2-((2-fluorotetrahydro-1H-pyrrolizin-7a(5H)-yl)methoxy)pyrido[4,3-d]pyrimidin-7-yl)-5-fluoronaphthalen-2-ol (racemic, trans)] |  | 0.0005 | 0.007 |
| [2H]C#Cc1cccc2cccc(-c3ncc4c(N5C[C@H]6CC[C@@H](C5)N6)nc(OCC56CCCN5CCC6)nc4c3F)c12 [Example 278, 4-((1R,5S)-3,8-diazabicyclo[3.2.1]octan-3-yl)-7-(8-(ethynyl-d)naphthalen-1-yl)-8-fluoro-2-((tetrahydro-1H-pyrrolizin-7a(5H)-yl)methoxy)pyrido[4,3-d]pyrimidine] |  | 0.0007 | 0.104 |
| Oc1ccc(SC(F)(F)F)c(-c2ncc3c(N4CC5CCC(C4)N5)nc(OC[C@@]45CCCN4C[C@H](F)C5)nc3c2F)c1 (racemic) [Example 386, 3-(4-((1R,5S)-3,8-diazabicyclo[3.2.1]octan-3-yl)-8-fluoro-2-((2-fluorotetrahydro-1H-pyrrolizin-7a(5H)-yl)methoxy)pyrido[4,3-d]pyrimidin-7-yl)-4-((trifluoromethyl)thio)phenol (racemic, trans)] |  | 0.002 | 0.32 |
| OC[C@@H](O)COc1nc(N2C[C@H]3CC[C@@H](C2)N3)c2cnc(-c3cccc4cccc(Cl)c34)c(F)c2n1 [Example 56, (R)-3-((4-((1R,5S)-3,8-diazabicyclo[3.2.1]octan-3-yl)-7-(8-chloronaphthalen-1-yl)-8-fluoropyrido[4,3-d]pyrimidin-2-yl)oxy)propane-1,2-diol] | 5.17 | 5.92 |  |
| CC(C)(C)c1ccccc1-c1ncc2c(N3CC4CCC(C3)N4)nc(OC[C@@]34CCCN3C[C@H](F)C4)nc2c1F (racemic) [Example 362, 4-((1R,5S)-3,8-diazabicyclo[3.2.1]octan-3-yl)-7-(2-(tert-butyl)phenyl)-8-fluoro-2-((2-fluorotetrahydro-1H-pyrrolizin-7a(5H)-yl)methoxy)pyrido[4,3-d]pyrimidine (racemic, trans)] |  | 0.106 | 10.5 |
| Oc1cc(-c2ncc3c(N4C[C@H]5CC[C@@H](C4)N5)nc(OCCc4ncccn4)nc3c2F)c2ccccc2c1 [Example 7, 4-(4-((1R,5S)-3,8-diazabicyclo[3.2.1]octan-3-yl)-8-fluoro-2-(2-(pyrimidin-2-yl)ethoxy)pyrido[4,3-d]pyrimidin-7-yl)naphthalen-2-ol] | 0.464 | 1.87 |  |
| FCC1CCC2(COc3nc(N4C[C@H]5CC[C@@H](C4)N5)c4cnc(-c5cccc6cccc(Cl)c56)c(F)c4n3)CCCN12 (stereo partly drawn) [Example 347, 4-((1R,5S)-3,8-diazabicyclo[3.2.1]octan-3-yl)-7-(8-chloronaphthalen-1-yl)-8-fluoro-2-((3-(fluoromethyl)tetrahydro-1H-pyrrolizin-7a(5H)-yl)methoxy)pyrido[4,3-d]pyrimidine] |  | 0.0021 | 0.459 |
| COc1cc(-c2ncc3c(N4CC5CCC(C4)N5)nc(OC[C@@]45CCCN4C[C@H](F)C5)nc3c2F)c2ccccc2c1 (racemic) [Example 385, 4-((1R,5S)-3,8-diazabicyclo[3.2.1]octan-3-yl)-8-fluoro-2-((2-fluorotetrahydro-1H-pyrrolizin-7a(5H)-yl)methoxy)-7-(3-methoxynaphthalen-1-yl)pyrido[4,3-d]pyrimidine (racemic, trans)] |  | 3.08 | > 16.7 |
| CC(C)c1cccc2cc(O)cc(-c3ncc4c(N5CC6CCC(C5)N6)nc(OC[C@@]56CCCN5C[C@H](F)C6)nc4c3F)c12 (racemic) [Example 364, 4-(4-((1R,5S)-3,8-diazabicyclo[3.2.1]octan-3-yl)-8-fluoro-2-((2-fluorotetrahydro-1H-pyrrolizin-7a(5H)-yl)methoxy)pyrido[4,3-d]pyrimidin-7-yl)-5-isopropylnaphthalen-2-ol (racemic, trans)] |  | 0.0023 | 0.322 |
| CN1CCC[C@H]1COc1nc(N2C[C@H]3CC[C@@H](C2)N3)c2cnc(-c3cccc4cccc(CCC#N)c34)c(F)c2n1 [Example 117, 3-(8-(4-((1R,5S)-3,8-diazabicyclo[3.2.1]octan-3-yl)-8-fluoro-2-(((S)-1-methylpyrrolidin-2-yl)methoxy)pyrido[4,3-d]pyrimidin-7-yl)naphthalen-1-yl)propanenitrile bis(2,2,2-trifluoroacetate)] | 1 | 0.731 |  |
